Results as given in ChEMBL document CHEMBL1201862, “PubChem BioAssay data set” (2004).
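1) Cells in 96-well plates. 2) Compound, 48 h, 5 concentrations. 3) Linear interpolation between surrounding doses. 4) Unreached endpoint = highest concentration. GI50 is the concentration that inhibits growth by half.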 The source made the active and inactive calls. No stated cut-off is given here; in the data, active = GI50 up to about 1.1 µM and inactive = higher.

Assays:
Test in all cases: inhibition of tumour cell growth, NCI panel, 48 h
SF-539 = tested on: SF-539
SW-620 = tested on: SW-620
OVCAR-4 = tested on: OVCAR-4
Malme-3M = tested on: Malme-3M
BT-549 = tested on: BT-549
HT-29 = tested on: HT-29
SK-MEL-28 = tested on: SK-MEL-28
TK-10 = tested on: TK-10
SR = tested on: SR
A498 = tested on: A498
HOP-92 = tested on: HOP-92
SK-OV-3 = tested on: SK-OV-3
NCI/ADR-RES = tested on: NCI/ADR-RES
U-251 = tested on: U-251
OVCAR-5 = tested on: OVCAR-5
MDA-MB-231 = tested on: MDA-MB-231
HOP-62 = tested on: HOP-62
Hs-578T = tested on: Hs-578T
SF-268 = tested on: SF-268
MOLT-4 = tested on: MOLT-4
UACC-257 = tested on: UACC-257
HL-60 = tested on: HL-60
EKVX = tested on: EKVX
NCI-H522 = tested on: NCI-H522
COLO 205 = tested on: COLO 205
786-0 = tested on: 786-0
ACHN = tested on: ACHN
SK-MEL-2 = tested on: SK-MEL-2
SF-295 = tested on: SF-295
MDA-MB-435 = tested on: MDA-MB-435
OVCAR-3 = tested on: OVCAR-3
UACC-62 = tested on: UACC-62
M14 = tested on: M14
NCI-H460 = tested on: NCI-H460
NCI-H226 = tested on: NCI-H226
RPMI-8226 = tested on: RPMI-8226
DU-145 = tested on: DU-145
PC-3 = tested on: PC-3
CAKI-1 = tested on: CAKI-1
IGROV-1 = tested on: IGROV-1
A549 = tested on: A549
MCF7 = tested on: MCF7
K562 = tested on: K562
RXF 393 = tested on: RXF 393
CCRF-CEM = tested on: CCRF-CEM
HCC 2998 = tested on: HCC 2998
SN12C = tested on: SN12C
NCI-H23 = tested on: NCI-H23
KM12 = tested on: KM12
HCT-116 = tested on: HCT-116
OVCAR-8 = tested on: OVCAR-8
SK-MEL-5 = tested on: SK-MEL-5
MDA-N = tested on: MDA-N
HCT-15 = tested on: HCT-15
T47D = tested on: T47D
SNB-19 = tested on: SNB-19
SNB-75 = tested on: SNB-75
LOX IMVI = tested on: LOX IMVI
UO-31 = tested on: UO-31
KM-20L2 = tested on: KM-20L2
DMS-114 = tested on: DMS-114
DMS-273 = tested on: DMS-273
M19-MEL = tested on: M19-MEL
LXFL 529 = tested on: LXFL 529

Measured: GI50

C[Si](C)(C)C1=C([Si](C)(C)C)C(Cl)(Cl)C1=O
inactive: SF-539 5.22 µM | SW-620 2.27 µM | OVCAR-4 3.28 µM | Malme-3M 1.75 µM | BT-549 3.63 µM | HT-29 3.11 µM | SK-MEL-28 2.79 µM | TK-10 1.68 µM | SR 1.93 µM | A498 15.5 µM | HOP-92 2.04 µM | SK-OV-3 22.6 µM | NCI/ADR-RES 3.42 µM | U-251 4.08 µM | OVCAR-5 7.28 µM | MDA-MB-231 2.8 µM | HOP-62 18.7 µM | Hs-578T 10.4 µM | SF-268 5.94 µM | UACC-257 2.05 µM | EKVX 4.72 µM | NCI-H522 1.27 µM | COLO 205 2.04 µM | 786-0 2.58 µM | ACHN 1.74 µM | SK-MEL-2 9.12 µM | SF-295 9.1 µM | MDA-MB-435 2 µM | OVCAR-3 2.18 µM | UACC-62 2.38 µM | M14 2.65 µM | NCI-H460 12.4 µM | NCI-H226 3.13 µM | DU-145 10.4 µM | PC-3 3.76 µM | CAKI-1 2.36 µM | IGROV-1 3.73 µM | A549 19.8 µM | MCF7 6.15 µM | RXF 393 1.9 µM | HCC 2998 8.36 µM | SN12C 3.31 µM | NCI-H23 4.26 µM | KM12 6.17 µM | HCT-116 3.39 µM | OVCAR-8 2.23 µM | SK-MEL-5 1.98 µM | MDA-N 1.99 µM | T47D 1.74 µM | SNB-19 16 µM | SNB-75 8.77 µM | LOX IMVI 1.58 µM | UO-31 2.34 µM
1.92 µM: HCT-15
active: MOLT-4 0.671 µM | HL-60 0.217 µM | RPMI-8226 0.8 µM | K562 0.879 µM | CCRF-CEM 0.232 µM

CCCCCCCCCC(=O)OCC1OC(n2cc(F)c(=O)[nH]c2=O)C(NC(=O)OCc2ccccc2)C(OC(=O)CCCCCCCCC)C1O (configuration not stated)
inactive: SF-539 40.8 µM | SW-620 26.4 µM | OVCAR-4 16.6 µM | Malme-3M 24.2 µM | HT-29 16.9 µM | SK-MEL-28 42.1 µM | TK-10 80.9 µM | SR 17.5 µM | A498 25.1 µM | HOP-92 18.2 µM | SK-OV-3 > 100 µM | U-251 15 µM | HOP-62 > 100 µM | SF-268 51.4 µM | MOLT-4 18.7 µM | UACC-257 61.8 µM | KM-20L2 > 10 µM | HL-60 24.1 µM | EKVX 31.6 µM | NCI-H522 20.9 µM | COLO 205 32.8 µM | 786-0 18.9 µM | ACHN 58.7 µM | DMS-114 18.8 µM | SK-MEL-2 31 µM | SF-295 40 µM | OVCAR-3 21.2 µM | UACC-62 44.2 µM | M14 52.2 µM | DMS-273 36.8 µM | NCI-H460 > 10 µM | RPMI-8226 21.4 µM | CAKI-1 > 100 µM | M19-MEL 36.8 µM | IGROV-1 > 100 µM | A549 26.1 µM | K562 30.1 µM | RXF 393 18.8 µM | LXFL 529 24.7 µM | CCRF-CEM 21.8 µM | HCC 2998 41.2 µM | SN12C 15.8 µM | NCI-H23 25.5 µM | KM12 31 µM | HCT-116 14.9 µM | OVCAR-8 24.3 µM | SK-MEL-5 20.3 µM | SNB-19 33.6 µM | SNB-75 16.3 µM | LOX IMVI 16.6 µM | UO-31 40.2 µM
35.2 µM: HCT-15

O=[N+]([O-])c1ccc2nc(/C(=N/Nc3ccccc3)C(O)c3ccc(C(O)/C(=N\Nc4ccccc4)c4nc5ccc([N+](=O)[O-])cc5nc4O)cc3)cnc2c1 (configuration not stated)
inactive: SF-539 55.1 µM | SW-620 > 100 µM | OVCAR-4 > 100 µM | Malme-3M > 100 µM | HT-29 > 100 µM | SK-MEL-28 > 100 µM | TK-10 > 100 µM | SR 33.7 µM | A498 32.1 µM | HOP-92 > 100 µM | SK-OV-3 > 100 µM | OVCAR-5 31.4 µM | HOP-62 28.5 µM | SF-268 > 100 µM | MOLT-4 75.3 µM | UACC-257 > 100 µM | KM-20L2 11.5 µM | HL-60 19.3 µM | EKVX > 100 µM | NCI-H522 5.64 µM | COLO 205 > 100 µM | 786-0 > 100 µM | ACHN 18 µM | DMS-114 11.2 µM | SK-MEL-2 43.8 µM | SF-295 > 100 µM | OVCAR-3 > 100 µM | UACC-62 36 µM | M14 40.3 µM | NCI-H460 18.1 µM | RPMI-8226 19.4 µM | CAKI-1 60.4 µM | M19-MEL 58.9 µM | IGROV-1 > 100 µM | A549 48.5 µM | K562 13.6 µM | RXF 393 > 100 µM | CCRF-CEM 39.6 µM | HCC 2998 29.1 µM | SN12C 44.1 µM | NCI-H23 > 100 µM | KM12 37.1 µM | HCT-116 55.5 µM | OVCAR-8 > 100 µM | SK-MEL-5 24.8 µM | SNB-19 > 100 µM | UO-31 23 µM

Cc1cccc2c(N)c3cccc(C(=O)NCCCNCCN)c3nc12
28.3 µM: HCT-15
active: MDA-MB-231 0.593 µM | Hs-578T 0.23 µM | SF-268 0.124 µM | MOLT-4 0.155 µM | NCI-H522 < 0.01 µM | NCI-H460 1.1 µM | NCI-H226 0.311 µM | A549 0.596 µM | MCF7 0.679 µM | SN12C 0.121 µM | NCI-H23 1.01 µM | SNB-75 0.946 µM
inactive: SF-539 2.17 µM | SW-620 8.43 µM | OVCAR-4 1.87 µM | Malme-3M 5.57 µM | BT-549 14.6 µM | HT-29 3.13 µM | SK-MEL-28 15.5 µM | TK-10 17.1 µM | SR 2.04 µM | A498 11.4 µM | HOP-92 5.61 µM | SK-OV-3 23.2 µM | NCI/ADR-RES 25.9 µM | U-251 1.3 µM | OVCAR-5 11 µM | HOP-62 3.53 µM | UACC-257 16.6 µM | HL-60 12.2 µM | EKVX 13.8 µM | COLO 205 6.37 µM | 786-0 1.71 µM | ACHN 10.5 µM | SK-MEL-2 16.3 µM | SF-295 4.45 µM | MDA-MB-435 15.5 µM | OVCAR-3 20.2 µM | UACC-62 4.38 µM | M14 14.1 µM | RPMI-8226 7.08 µM | DU-145 3.59 µM | PC-3 14.3 µM | CAKI-1 7.91 µM | IGROV-1 4.83 µM | K562 12.9 µM | RXF 393 3.4 µM | CCRF-CEM 1.46 µM | HCC 2998 4.35 µM | KM12 4.8 µM | HCT-116 7.5 µM | OVCAR-8 5.32 µM | SK-MEL-5 7.11 µM | MDA-N 13.7 µM | T47D 7.85 µM | SNB-19 3.09 µM | LOX IMVI 7.11 µM | UO-31 19 µM
